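A five-concentration, 48-hour dose response in 96-well plates underlies each endpoint, interpolated linearly between surrounding concentrations. GI50 marks 50% less growth.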 Activity calls are given as the source filed them. No stated cut-off is given here; in the data, active = GI50 up to about 1.1 µM and inactive = higher.
Legend:
Experiment in all cases: NCI anticancer screen, dose series, 48 h
[1] = tested on: DMS-114
[2] = tested on: KM-20L2
[3] = tested on: M19-MEL
[4] = tested on: DLD-1
[5] = tested on: HOP-18
[6] = tested on: SNB-78
[7] = tested on: DMS-273
[8] = tested on: RXF 631
[9] = tested on: XF498

Compound | GI50 [1] | GI50 [2] | GI50 [3] | GI50 [4] | GI50 [5] | GI50 [6] | GI50 [7] | GI50 [8] | GI50 [9]
CC1=C(c2cc(C(=O)Nc3cc(C)ccc3C)nc(N)n2)Sc2ccccc2N1 | > 100 µM (inactive) | > 100 µM (inactive) | > 100 µM (inactive) | > 100 µM (inactive) | > 100 µM (inactive) | > 100 µM (inactive) | > 100 µM (inactive) | > 100 µM (inactive) | 
Cc1ccc([N+](=O)[O-])cc1NC(=O)/C(=N/NC(=S)NN)C1SC(=S)NC1=O (stereo unspecified) | > 100 µM (inactive) | > 100 µM (inactive) |  | > 100 µM (inactive) | > 100 µM (inactive) | > 100 µM (inactive) | > 100 µM (inactive) |  | > 100 µM (inactive)
C=C1C(=O)O[C@@H]2C[C@@H](C)[C@@H]3C=CC(=O)[C@@]3(C)[C@@H](O)[C@H]12 [HELENALIN] | 1.45 µM (inactive) | 1.73 µM (inactive) | 2.82 µM (inactive) | 0.557 µM (active) | 2.02 µM (inactive) |  | 1.53 µM (inactive) |  | 
C=CCOC(=O)C1CCC(=O)N1C(=O)C(Cl)Cl (stereo unspecified) | > 100 µM (inactive) | > 100 µM (inactive) | > 100 µM (inactive) | > 100 µM (inactive) | > 100 µM (inactive) | > 100 µM (inactive) | > 100 µM (inactive) |  | 17.7 µM (inactive)
COC(=O)c1c(OC(=O)c2ccccc2)noc1CC(=O)OC1C=CCCC1 (stereo unspecified) | 38.5 µM (inactive) | > 100 µM (inactive) |  | > 100 µM (inactive) | > 100 µM (inactive) | > 100 µM (inactive) | > 100 µM (inactive) |  | 
C/N=C1\CC2c3cc(OC)c(OC)cc3CCN2C2=C1C(=O)CC(C)(C)C2 (stereo unspecified) | > 100 µM (inactive) | > 100 µM (inactive) | > 100 µM (inactive) | > 100 µM (inactive) |  | > 100 µM (inactive) | > 100 µM (inactive) |  | 
C=CCc1cc(OC)c2c(c1)C(OC)CC(c1ccc(OC)c(OC)c1)O2 (stereo unspecified) | 67.5 µM (inactive) | > 100 µM (inactive) | > 100 µM (inactive) | > 100 µM (inactive) |  | > 100 µM (inactive) | > 100 µM (inactive) | > 100 µM (inactive) | > 100 µM (inactive)
NN/C(Cc1ccccc1)=N\NO | 25.5 µM (inactive) | 32.5 µM (inactive) | > 100 µM (inactive) | > 100 µM (inactive) | > 100 µM (inactive) |  | > 100 µM (inactive) | 32.2 µM (inactive) | 
N#Cc1ccccc1NC(=O)C(=O)C1NC(=S)NC1=O (stereo unspecified) | > 100 µM (inactive) | > 100 µM (inactive) | > 100 µM (inactive) | > 100 µM (inactive) | 46.6 µM (inactive) |  |  |  | > 100 µM (inactive)
CC(C)=C1CCC(CN2CCOCC2)C1=O (stereo unspecified) | 7.89 µM (inactive) | 16.4 µM (inactive) | 22.1 µM (inactive) | 4.38 µM (inactive) | 9.35 µM (inactive) | 9.38 µM (inactive) |  | 9.23 µM (inactive) | 12.7 µM (inactive)
CC1=NOC(=O)/C1=C/c1ccccc1O | > 100 µM (inactive) | > 100 µM (inactive) | > 100 µM (inactive) | > 100 µM (inactive) | > 100 µM (inactive) | > 100 µM (inactive) | > 100 µM (inactive) | > 100 µM (inactive) | > 100 µM (inactive)
CCn1c2c(c3ccccc31)[C@@H](c1ccc(Cl)cc1)CC1C(=O)N(c3ccccc3)C(=O)C21 (stereo partly specified) | 46.8 µM (inactive) | > 100 µM (inactive) | > 100 µM (inactive) | > 100 µM (inactive) | > 100 µM (inactive) | 26.4 µM (inactive) | > 100 µM (inactive) |  | 64.6 µM (inactive)
CC1(C)CC(=O)c2c(oc3cc(O)c(O)cc23)C1 | 13.2 µM (inactive) | 33.7 µM (inactive) | 35.3 µM (inactive) | 22.9 µM (inactive) | 40.1 µM (inactive) | 46.9 µM (inactive) | 28.6 µM (inactive) | 26.3 µM (inactive) | 
COC(=O)Nc1nc2cc(Br)ccc2[nH]1 | 23.1 µM (inactive) | 21.2 µM (inactive) | 28.8 µM (inactive) | 42.3 µM (inactive) | 64.1 µM (inactive) | 42.4 µM (inactive) | 16 µM (inactive) |  | 23.6 µM (inactive)
C[n+]1c(Cl)cn2c3nc4ccccc4nc3c([O-])c(C#N)c21 | > 100 µM (inactive) |  | < 0.01 µM (active) | < 0.01 µM (active) | > 100 µM (inactive) | > 100 µM (inactive) | > 100 µM (inactive) |  | > 100 µM (inactive)
CCOc1ccccc1/N=C(/NC(=O)CC)SC | > 10 µM (inactive) | > 10 µM (inactive) | > 10 µM (inactive) | 88.3 µM (inactive) | > 10 µM (inactive) | > 10 µM (inactive) | > 10 µM (inactive) | > 10 µM (inactive) | 
CC[C@@H]1C[C@H]2CC3c4[nH]c5ccc(O)cc5c4CCN(C2)C31 | > 100 µM (inactive) | > 100 µM (inactive) | > 100 µM (inactive) |  | > 100 µM (inactive) | > 100 µM (inactive) | > 100 µM (inactive) | > 100 µM (inactive) | > 100 µM (inactive)
O=c1/c(=C/c2cccc3ccccc23)sc2nc3ccccc3n12 | > 100 µM (inactive) | > 100 µM (inactive) | > 100 µM (inactive) | > 100 µM (inactive) | > 100 µM (inactive) | > 100 µM (inactive) | > 100 µM (inactive) | > 100 µM (inactive) | 
Cc1ccn2c(c1)nc1nc3ccccc3nc12 | > 100 µM (inactive) | > 100 µM (inactive) | > 100 µM (inactive) | > 100 µM (inactive) |  | > 100 µM (inactive) | > 100 µM (inactive) |  | > 100 µM (inactive)
